In US20220031800A1, “PEPTIDES FOR TREATING NON-EXUDATIVE MACULAR DEGENERATION AND OTHER DISORDERS OF THE EYE” (Allegro Pharmaceuticals, LLC, priority 2019, published 2022):
Square brackets hold non-standard residues; d marks the D form. Peptide text beside a SMILES is read from it. Cya = N[C@@H](CS(=O)(=O)O)C(=O)O

Assays:
[1] = system: study eye of subjects with intermediate non-exudative AMD; assay: SD-OCT Analysis 1 (thickness and volume of retinal layers, EZ defect area, GA); assay type: in vivo, human
Procedure: Numerous study assessments were conducted at various time points throughout the study. Included among these study assessments were; refractive eye examinations, determinations of BCVA AND low-luminance BCVA, Lanthony D-15 color vision test, measurement of intraocular pressure (IOP), Indirect ophthalmoscopy/dilated fundus examinations and spectral-domain optical coherence tomography (SD-OCT). Also, blood and saliva samples were obtained from each subject for genetic analysis. The above-listed study assessments were performed at the time points indicated in Table 1, below: The OCT scans were analyzed by two (2) unrelated experts. The mean thickness and mean volume of retinal subfields and layer segments were analyzed at screening (pre-treatment) and at Week 12 for Group 1 subjects and at Week 32 for Group 2 subjects. In addition to the quantitative analysis of OCT images, a qualitative assessment of the OCT images at baseline (pre-treatment) was performed to identify GA anywhere in the retina, in the fovea (1-mm central subfield), and in the foveal center. Quantitative analysis of the OCT images was also performed to measure changes in anatomical measurements over time.

[2] = system: human retinal Müller cells (MIO-M1); assay: Reactive oxygen species level in human Müller cells (MIO-M1); assay type: cell-based; conditions: 1× concentration (clinical dose), 24 hours
Procedure: Purpose: To determine the effects of risuteganib and anti-VEGF drugs on reactive oxygen species (ROS) levels in cultured human retinal Müller cells (MIO-M1). Elevated ROS levels can disrupt normal cellular functions, leading to reduced cell health and possible cell death.
Methods: The immortalized human retinal Müller cell line (MIO-M1) was obtained from the Department of Cell Biology of the University College, London. Cells were cultured in Dulbecco's Modified Eagle's Medium (DMEM) and plated in 24-well plates for 24 hours before treatment with 1× concentration of 1 mg/50 μL ALG-1001, ranibizumab, bevacizumab, or aflibercept. Dosage was based on clinical dose of each compound. The experiments were repeated 3 times with 6 replicates each. After 24 hours drug treatment, ROS level was measured using the fluorescent dye 2′,7′-dichlorodihydrofluorescein diacetate. The signals were read using the Biotek Synergy HT plate reader with EX filter in 482 nm and EM filter in 520 nm. Results were normalized to untreated control as 100%. Statistical analysis was performed in GraphPad Prism software program.

[3] = baseline to Week 32, nonresponder eyes n = 12
[4] = baseline to Week 32, responder eyes n = 10
[5] = baseline to Week 32, responder vs nonresponder eyes
[6] = baseline to Week 32, risuteganib arm n = 22
[7] = risuteganib arm (Week 32) vs sham arm (Week 12)

Structure (SMILES): C[C@@H](O)[C@H](NC(=O)[C@H](CS(=O)(=O)O)NC(=O)CNC(=O)[C@H](CCCNC(=N)N)NC(=O)CN)C(=O)N1CCC[C@H]1C(=O)O [risuteganib, Glycyl-L-arginylglycyl-3-sulfo-L-alanyl-L-threonyl-L-proline] (H-GRG[Cya]TP-OH)
- Change in EZ defect area [1, 3]: 0.014 mm^2
- Mean change in mean thickness: Inner retina, central subfield [1, 3]: −2.250 μm
- Mean change in mean thickness: Inner retina, foveal center [1, 3]: 9.917 μm
- Mean change in mean thickness: Outer retina, central subfield [1, 3]: −5.417 μm
- Mean change in mean thickness: Outer retina, foveal center [1, 3]: −17.833 μm
- Mean change in mean thickness: Photoreceptor, central subfield [1, 3]: −1.333 μm
- Mean change in mean thickness: Photoreceptor, foveal center [1, 3]: 3.833 μm
- Mean change in mean thickness: RPEDC, central subfield [1, 3]: 1.083 μm
- Mean change in mean thickness: RPEDC, foveal center [1, 3]: −2.250 μm
- Mean change in total volume: Inner retina, central subfield [1, 3]: −0.002 mm^3
- Mean change in total volume: Outer retina, central subfield [1, 3]: −0.004 mm^3
- Mean change in total volume: Photoreceptor, central subfield [1, 3]: −0.001 mm^3
- Mean change in total volume: RPEDC, central subfield [1, 3]: 0.001 mm^3
- Change in EZ defect area [1, 4]: 0.020 mm^2
- Mean change in mean thickness: Inner retina, central subfield [1, 4]: 5.200 μm
- Mean change in mean thickness: Inner retina, foveal center [1, 4]: 8.400 μm
- Mean change in mean thickness: Outer retina, central subfield [1, 4]: −2.400 μm
- Mean change in mean thickness: Outer retina, foveal center [1, 4]: −8.000 μm
- Mean change in mean thickness: Photoreceptor, central subfield [1, 4]: −1.000 μm
- Mean change in mean thickness: Photoreceptor, foveal center [1, 4]: 3.100 μm
- Mean change in mean thickness: RPEDC, central subfield [1, 4]: −9.800 μm
- Mean change in mean thickness: RPEDC, foveal center [1, 4]: −8.100 μm
- Mean change in total volume: Inner retina, central subfield [1, 4]: 0.004 mm^3
- Mean change in total volume: Outer retina, central subfield [1, 4]: −0.002 mm^3
- Mean change in total volume: Photoreceptor, central subfield [1, 4]: −0.001 mm^3
- Mean change in total volume: RPEDC, central subfield [1, 4]: −0.008 mm^3
- Change in EZ defect area, Difference [1, 5]: 0.006 mm^2
- Mean change in mean thickness: Inner retina, central subfield, Difference [1, 5]: 7.450 μm
- Mean change in mean thickness: Inner retina, foveal center, Difference [1, 5]: −1.517 μm
- Mean change in mean thickness: Outer retina, central subfield, Difference [1, 5]: 3.017 μm
- Mean change in mean thickness: Outer retina, foveal center, Difference [1, 5]: 9.833 μm
- Mean change in mean thickness: Photoreceptor, central subfield, Difference [1, 5]: 0.333 μm
- Mean change in mean thickness: Photoreceptor, foveal center, Difference [1, 5]: −0.733 μm
- Mean change in mean thickness: RPEDC, central subfield, Difference [1, 5]: −10.883 μm
- Mean change in mean thickness: RPEDC, foveal center, Difference [1, 5]: −5.850 μm
- Mean change in total volume: Inner retina, central subfield, Difference [1, 5]: 0.006 mm^3
- Mean change in total volume: Outer retina, central subfield, Difference [1, 5]: 0.003 mm^3
- Mean change in total volume: Photoreceptor, central subfield, Difference [1, 5]: 0.000 mm^3
- Mean change in total volume: RPEDC, central subfield, Difference [1, 5]: −0.009 mm^3
- Change in EZ defect area [1, 6]: 0.015 mm^2
- Mean change in mean thickness: Inner retina, central subfield [1, 6]: 1.565 μm
- Mean change in mean thickness: Inner retina, foveal center [1, 6]: 6.696 μm
- Mean change in mean thickness: Inner retina, inferior subfield [1, 6]: −0.065 μm
- Mean change in mean thickness: Inner retina, nasal subfield [1, 6]: −0.783 μm
- Mean change in mean thickness: Inner retina, superior subfield [1, 6]: −3.022 μm
- Mean change in mean thickness: Inner retina, temporal subfield [1, 6]: 0.217 μm
- Mean change in mean thickness: Outer retina, central subfield [1, 6]: −3.978 μm
- Mean change in mean thickness: Outer retina, foveal center [1, 6]: −9.543 μm
- Mean change in mean thickness: Outer retina, inferior subfield [1, 6]: −2.457 μm
- Mean change in mean thickness: Outer retina, nasal subfield [1, 6]: −1.196 μm
- Mean change in mean thickness: Outer retina, superior subfield [1, 6]: −0.065 μm
- Mean change in mean thickness: Outer retina, temporal subfield [1, 6]: −2.283 μm
- Mean change in mean thickness: Photoreceptor, central subfield [1, 6]: −1.087 μm
- Mean change in mean thickness: Photoreceptor, foveal center [1, 6]: 1.717 μm
- Mean change in mean thickness: Photoreceptor, inferior subfield [1, 6]: −0.239 μm
- Mean change in mean thickness: Photoreceptor, nasal subfield [1, 6]: −0.087 μm
- Mean change in mean thickness: Photoreceptor, superior subfield [1, 6]: 0.130 μm
- Mean change in mean thickness: Photoreceptor, temporal subfield [1, 6]: −0.152 μm
- Mean change in mean thickness: RPEDC, central subfield [1, 6]: −1.500 μm
- Mean change in mean thickness: RPEDC, foveal center [1, 6]: −1.652 μm
- Mean change in mean thickness: RPEDC, inferior subfield [1, 6]: 0.457 μm
- Mean change in mean thickness: RPEDC, nasal subfield [1, 6]: 0.739 μm
- Mean change in mean thickness: RPEDC, superior subfield [1, 6]: 1.739 μm
- Mean change in mean thickness: RPEDC, temporal subfield [1, 6]: 0.870 μm
- Mean change in total volume: Inner retina, central subfield [1, 6]: 0.001 mm^3
- Mean change in total volume: Inner retina, inferior subfield [1, 6]: 0.000 mm^3
- Mean change in total volume: Inner retina, nasal subfield [1, 6]: −0.001 mm^3
- Mean change in total volume: Inner retina, superior subfield [1, 6]: −0.005 mm^3
- Mean change in total volume: Inner retina, temporal subfield [1, 6]: 0.000 mm^3
- Mean change in total volume: Outer retina, central subfield [1, 6]: −0.003 mm^3
- Mean change in total volume: Outer retina, inferior subfield [1, 6]: −0.004 mm^3
- Mean change in total volume: Outer retina, nasal subfield [1, 6]: −0.002 mm^3
- Mean change in total volume: Outer retina, superior subfield [1, 6]: −0.000 mm^3
- Mean change in total volume: Outer retina, temporal subfield [1, 6]: −0.004 mm^3
- Mean change in total volume: Photoreceptor, central subfield [1, 6]: −0.001 mm^3
- Mean change in total volume: Photoreceptor, inferior subfield [1, 6]: −0.001 mm^3
- Mean change in total volume: Photoreceptor, nasal subfield [1, 6]: −0.000 mm^3
- Mean change in total volume: Photoreceptor, superior subfield [1, 6]: 0.000 mm^3
- Mean change in total volume: Photoreceptor, temporal subfield [1, 6]: −0.000 mm^3
- Mean change in total volume: RPEDC, central subfield [1, 6]: −0.001 mm^3
- Mean change in total volume: RPEDC, inferior subfield [1, 6]: 0.001 mm^3
- Mean change in total volume: RPEDC, nasal subfield [1, 6]: 0.001 mm^3
- Mean change in total volume: RPEDC, superior subfield [1, 6]: 0.003 mm^3
- Mean change in total volume: RPEDC, temporal subfield [1, 6]: 0.001 mm^3
- Change in EZ defect area, Difference [1, 7]: 0.025 mm^2
- Mean change in mean thickness: Inner retina, central subfield, Difference [1, 7]: 0.690 μm
- Mean change in mean thickness: Inner retina, foveal center, Difference [1, 7]: 15.404 μm
- Mean change in mean thickness: Inner retina, inferior subfield, Difference [1, 7]: −1.607 μm
- Mean change in mean thickness: Inner retina, nasal subfield, Difference [1, 7]: −0.949 μm
- Mean change in mean thickness: Inner retina, superior subfield, Difference [1, 7]: −4.188 μm
- Mean change in mean thickness: Inner retina, temporal subfield, Difference [1, 7]: 0.092 μm
- Mean change in mean thickness: Outer retina, central subfield, Difference [1, 7]: −3.812 μm
- Mean change in mean thickness: Outer retina, foveal center, Difference [1, 7]: −14.794 μm
- Mean change in mean thickness: Outer retina, inferior subfield, Difference [1, 7]: 0.460 μm
- Mean change in mean thickness: Outer retina, nasal subfield, Difference [1, 7]: 1.388 μm
- Mean change in mean thickness: Outer retina, superior subfield, Difference [1, 7]: 0.768 μm
- Mean change in mean thickness: Outer retina, temporal subfield, Difference [1, 7]: −1.158 μm
- Mean change in mean thickness: Photoreceptor, central subfield, Difference [1, 7]: −2.545 μm
- Mean change in mean thickness: Photoreceptor, foveal center, Difference [1, 7]: 1.342 μm
- Mean change in mean thickness: Photoreceptor, inferior subfield, Difference [1, 7]: −0.781 μm
- Mean change in mean thickness: Photoreceptor, nasal subfield, Difference [1, 7]: −0.379 μm
- Mean change in mean thickness: Photoreceptor, superior subfield, Difference [1, 7]: −0.161 μm
- Mean change in mean thickness: Photoreceptor, temporal subfield, Difference [1, 7]: −0.694 μm
- Mean change in mean thickness: RPEDC, central subfield, Difference [1, 7]: −0.167 μm
- Mean change in mean thickness: RPEDC, foveal center, Difference [1, 7]: −1.402 μm
- Mean change in mean thickness: RPEDC, inferior subfield, Difference [1, 7]: 1.623 μm
- Mean change in mean thickness: RPEDC, nasal subfield, Difference [1, 7]: −0.511 μm
- Mean change in mean thickness: RPEDC, superior subfield, Difference [1, 7]: 2.739 μm
- Mean change in mean thickness: RPEDC, temporal subfield, Difference [1, 7]: 2.536 μm
- Mean change in total volume: Inner retina, central subfield, Difference [1, 7]: 0.001 mm^3
- Mean change in total volume: Inner retina, inferior subfield, Difference [1, 7]: −0.002 mm^3
- Mean change in total volume: Inner retina, nasal subfield, Difference [1, 7]: −0.002 mm^3
- Mean change in total volume: Inner retina, superior subfield, Difference [1, 7]: −0.007 mm^3
- Mean change in total volume: Inner retina, temporal subfield, Difference [1, 7]: 0.000 mm^3
- Mean change in total volume: Outer retina, central subfield, Difference [1, 7]: −0.003 mm^3
- Mean change in total volume: Outer retina, inferior subfield, Difference [1, 7]: 0.001 mm^3
- Mean change in total volume: Outer retina, nasal subfield, Difference [1, 7]: 0.002 mm^3
- Mean change in total volume: Outer retina, superior subfield, Difference [1, 7]: 0.001 mm^3
- Mean change in total volume: Outer retina, temporal subfield, Difference [1, 7]: −0.002 mm^3
- Mean change in total volume: Photoreceptor, central subfield, Difference [1, 7]: −0.002 mm^3
- Mean change in total volume: Photoreceptor, inferior subfield, Difference [1, 7]: −0.002 mm^3
- Mean change in total volume: Photoreceptor, nasal subfield, Difference [1, 7]: −0.001 mm^3
- Mean change in total volume: Photoreceptor, superior subfield, Difference [1, 7]: −0.000 mm^3
- Mean change in total volume: Photoreceptor, temporal subfield, Difference [1, 7]: −0.001 mm^3
- Mean change in total volume: RPEDC, central subfield, Difference [1, 7]: −0.000 mm^3
- Mean change in total volume: RPEDC, inferior subfield, Difference [1, 7]: 0.002 mm^3
- Mean change in total volume: RPEDC, nasal subfield, Difference [1, 7]: −0.001 mm^3
- Mean change in total volume: RPEDC, superior subfield, Difference [1, 7]: 0.005 mm^3
- Mean change in total volume: RPEDC, temporal subfield, Difference [1, 7]: 0.004 mm^3
- Change in ROS level compared to untreated control [2]: −19%
